These results are taken from article PMC11119685, “Undescribed Cyclohexene and Benzofuran Alkenyl Derivatives from Choerospondias axillaris, a Potential Hypoglycemic Fruit” (Foods, 2024).

The assay has as its target α-glucosidase (Saccharomyces cerevisiae, UniProt P53341). The assay is described as follows: α-Glucosidase inhibitory assay (pNPG substrate, absorbance at 405 nm). Format: biochemical. The following applies: for inhibition at 50 µM: read-out: Inhibition Rate (in vitro α-glucosidase inhibitory activity); for α-glucosidase inhibitory activity, in words: qualitative statement, tested at 50 μM. As for the experimental part:
The α-glucosidase inhibitory activity was evaluated according to a previous method. In brief, α-glucosidase solution (0.025 U/mL, dissolved in 0.1 M phosphate-buffered saline (PBS) solution with a pH of 6.8), was mixed with 50 μM inhibitor and incubated at 37 °C for 10 min. pNPG solution (1 μM, dissolved in 0.1 M PBS solution) was added to the mixed solution and incubated at 37 °C for 40 min. Sodium carbonate (1 M) solution was added to terminate the reaction. […] The absorbance was recorded at 405 nm usin a microplate reader. The α-glucosidase inhibitory rate was calculated as follows:
Inhibitory rate% = [(A0 − A1)/A0)] × 100%, where:
A0 and A1 represent the absorbance of the blank group (containing enzyme, pNPG, PBS buffer, and DMSO), the sample group (containing enzyme, pNPG, PBS buffer, and samples), respectively. IC50 values were computed based on the Reed–Muench method.
All data were analyzed and presented as mean values ± SD from three independent assays (n = 3). The IC50 values were determined by Graph Pad Prism version 5 (University of California, San Diego, CA, USA).

The mark [1] stands for this setting: at a concentration of 50 μM, means ± SD (n = 3).

Where two headings read alike, the source gives them in different places.

Chain of α-glucosidase (P53341 whole entry): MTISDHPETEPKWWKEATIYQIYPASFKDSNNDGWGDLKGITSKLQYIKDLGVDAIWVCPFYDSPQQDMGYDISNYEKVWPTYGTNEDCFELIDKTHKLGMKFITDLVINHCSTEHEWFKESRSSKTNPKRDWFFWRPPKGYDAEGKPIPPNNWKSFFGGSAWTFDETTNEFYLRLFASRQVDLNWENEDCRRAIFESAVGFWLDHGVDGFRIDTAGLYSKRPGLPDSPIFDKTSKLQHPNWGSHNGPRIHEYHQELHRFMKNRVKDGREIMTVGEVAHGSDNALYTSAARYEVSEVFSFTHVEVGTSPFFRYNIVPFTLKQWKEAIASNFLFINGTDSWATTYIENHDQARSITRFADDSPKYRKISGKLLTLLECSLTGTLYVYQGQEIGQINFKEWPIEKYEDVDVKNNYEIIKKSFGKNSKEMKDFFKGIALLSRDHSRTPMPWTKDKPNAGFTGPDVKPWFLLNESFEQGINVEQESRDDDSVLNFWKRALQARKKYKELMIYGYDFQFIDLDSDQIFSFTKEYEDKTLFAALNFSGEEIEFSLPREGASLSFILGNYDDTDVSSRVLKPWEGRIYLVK

As usually defined, the inhibition is the relative decrease from the control value, in per cent. In the case of `CCCCC=CCCCCCCCCCC1(O)CC(O)CCC1O` [Compound 1, (1S,2R,4S)-2-[10′(Z)-pentadecenyl]-cyclohexane-1,2,4-triol], under setting [1], the inhibition at 50 µM is -8.1 ± 2.4%.
On the same count and under the same terms, the same measure for `CCCCC=CCCCCCCCCCCCC1(O)CC(O)C=CC1O` [Compound 2, (1S,2R,4S)-2-[12′(Z)-heptadecenyl]-cyclohex-5-en-1,2,4-triol]: -12.4 ± 0.66%.
Same read-out and setting: then `CCCCC=CCCCCCCCCCCCCCC1(O)CC(O)C=CC1O` [Compound 3, (1S,2R,4S)-2-[14′(Z)-nonadecenyl]-cyclohex-5-en-1,2,4-triol], with -13.6 ± 1.7%.
Turning to `CCCCC=CCCCCCCCCCC(O)CC1=CC(=O)CCC1O` [Compound 4, (4R,2′R)-dihydroxy-3-[12′(Z)-heptadecenyl]-2-cyclohexenone], under setting [1], the inhibition at 50 µM was 11.1 ± 1.1%.
The same measure, in the same setting: then `CCCCC=CCCCCCCCCCC(O)CC1=CC(=O)CC(O)C1O` [Compound 5, (4S,5S,2′R)-trihydroxy-3-[12′(Z)-heptadecenyl]-2-cyclohexenone], with -11.2 ± 0.94%; and `CCCC/C=C\CCCCCCCCCc1cc2cc(O)ccc2o1` [Compound 6, 2-[10′(Z)-pentadecenyl]-benzofuran-5-ol], with 97.7 ± 0.19%; and `CCCC/C=C\CCCCCCCc1cc2cc(O)ccc2o1` [Compound 7, 2-[8′(Z)-tridecenyl]-benzofuran-5-ol], with 96.7 ± 0.51%.
The same measure, in the same setting: then `CCCC/C=C\CCCCCCCCCCCc1cc2cc(O)ccc2o1` [Compound 8, choerosponol A], with 98.7 ± 0.2%.
On to `Oc1cc(O)c2c(c1)O[C@H](c1ccc(O)c(O)c1)[C@@H](O)C2` [Compound 9, catechin], for which the “α-glucosidase inhibitory activity, in words” value is “notable α-glucosidase inhibition”. Under setting [1], the inhibition at 50 µM is 61.1 ± 1.6%.
As to `O=C1c2c(O)cc(O)cc2O[C@H](c2ccc(O)c(O)c2)[C@H]1O` [Compound 10, dihydroquercetin], the “α-glucosidase inhibitory activity, in words” value was “comparable α-glucosidase inhibitory” and the inhibition at 50 µM is 36.4 ± 0.72%.
For `O=C1c2c(O)cc(O)cc2O[C@H](c2ccc(O)cc2)[C@H]1O` [Compound 11, dihydrokaempferol], the “α-glucosidase inhibitory activity, in words” value is reported as “comparable α-glucosidase inhibitory”. Besides, the inhibition at 50 µM under setting [1] was 43.8 ± 1.3%.
`O=C1C[C@@H](c2ccc(O)c(O)c2)Oc2cc(O)cc(O)c21` [Compound 12, eriodictyol]: under setting [1], the inhibition at 50 µM is 66.6 ± 0.92%.
As for `O=C1C[C@@H](c2ccc(O)cc2)Oc2cc(O)cc(O)c21` [Compound 13, naringenin], the inhibition at 50 µM stood at 65.1 ± 2%.
As to `C[C@@H]1O[C@@H](Oc2c(-c3ccc(O)c(O)c3)oc3cc(O)cc(O)c3c2=O)[C@H](O)[C@H](O)[C@H]1O` [Compound 14, quercetin-3-O-α-L-rhamnoside], the “α-glucosidase inhibitory activity, in words” value is reported as “comparable α-glucosidase inhibitory” and the inhibition at 50 µM worked out at 26.2 ± 1.3%.
On to `COc1cc([C@H]2c3cc(O)c(OC)cc3C[C@@H](CO)[C@@H]2CO)ccc1O` [Compound 15, (+)-isolariciresinol], for which the “α-glucosidase inhibitory activity, in words” value was “weak inhibitory activity”. Under setting [1], the inhibition at 50 µM came out at 16.6 ± 0.57%.
The corresponding values for `COc1cc([C@@H]2c3c(cc(OC)c(O)c3OC)C[C@H](CO)[C@H]2CO)cc(OC)c1O` [Compound 16, (−)-lyoniresinol] are “weak inhibitory activity” and 7.5 ± 1.4%.
The corresponding values for `COc1cc(C[C@@H](CO)[C@H](CO)Cc2ccc(O)c(OC)c2)ccc1O` [Compound 17, (−)-secoisolariciresinol] are “weak inhibitory activity” and 37.6 ± 0.12%.
In the same order, the values of `COc1cc(C2OCC3C(c4cc(OC)c(O)c(OC)c4)OCC23)cc(OC)c1O` (centres unmarked) [Compound 18, lirioresinol] are “weak inhibitory activity” and 4.8 ± 0.38%.
